Experimental data: patent US20050148505A1, “Genes and agents to regulate follicular development, ovulation cycle and steriodogenesis” (priority 2003, published 2005)

Key:
CTBP mRNA = CTBP mRNA expression in primary granulosa cell culture by semi-quantitative RT-PCR; type: cell-based, rat; details: 6 h; for CTBP mRNA level, inhibitor alone in the absence of FSH: CHX 10 μg/ml or α-amanitin 30 μg/ml, compared to control
Method: FIG. 3. CTBP mRNA expression in primary granulosa cell culture. Granulosa cells were isolated from the ovaries of 24 day old immature rat primed with 17β-estradiol. The cells were cultured in the presence of 30 ng/ml FSH for up to 48 h, and RNA was extracted and amplified for CTBP using quantitative RT-PCR. In addition, L-19 mRNA was probed as an internal control. The CTBP values were normalized with the corresponding values of L-19 and two independent experimental values were averaged.
FIG. 5. Effects of cycloheximide and α-amanitin treatment on the FSH/forskolin-induced expression of CTBP mRNA. Granulosa cells were isolated from 17β-estradiol primed 24-day old immature rat ovaries and cultured with FSH (30 ng/ml) or forskolin (10 μM, FSK) in the presence or absence of cycloheximide (10 μg/ml, CHX) or α-amanitin (30 μg/ml, AMA) for the 6 h. CHX, a translation inhibitor, and AMA, a transcription inhibitor, were pretreated to the cell cultures one hour before hormone treatment. Total RNA was isolated and analyzed for CTBP and L-19 mRNA by semi-quantitative RT-PCR assay using 23 cycles for CTBP and 20 cycles for L-19. L-19 was used as an internal control. Values shown are the range of two independent experiments along with the mean, indicated by bars.
For granulosa cell culture, immature rats were daily injected sub cutaneously with 1.5 mg of 17β-estradiol at 21, 22 and 23 days of age. […] After cells were washed three times in 4F, they were plated on serum-coated, 6-well plates at a density of ˜1×10^6 cells per […] and incubated in the humidified atmosphere of 5% CO2 at 37 C. After 16 h, FSH (30 ng/ml) or forskolin (10 μM) was added to the cultures. For the inhibition of protein synthesis or transcription, cycloheximide (10 μg/ml) or α-amanitin (30 μg/ml) was added, respectively, 1 h before hormone treatment.
RT-PCR was performed as previously described (Ko et al. 1999 Endocrinology 140:5185-519411). Total RNA (1-2 μg) was reverse-transcribed at 37° C. in 20 μl using random hexamer (500 ng) and MMLV reverse transcriptase (10 units) (New England BioLabs, Boston, Mass.). Complementary DNA (cDNA) in 2 μl was added for a total 25 μl reaction mixture containing the primers (200 ng each), 0.4 mM dNTP mixture, and Taq DNA polymerase (2.5 U) in 1×PCR buffer (10 mM Tris, pH 8.3, 50 mM KCl, 1.5 mM MgCl2, 0.01% gelatin). All PCR amplifications were carried out for 20, 25, 30 cycles on a MJ research Minicycler (MJ Research, MA). PCR products were separated by 2% agarose gel electrophoresis, stained with SYBR® Green I (Molecular Probes), and visualized on a phosphoimager. The primers were 5′-ctg act ggc gag aac tgg atg-3′SEQ ID NO. 1) and 5′-aca gta tgc agg ctt cgc tcc-3′ (SEQ ID NO. 2) for 160 bp CTBP, 5′-gct ttc cct ctg ttg acc cac-3′(SEQ ID NO. 3) and 5′-aga tgt tga ggg cag ctc gat-3′(SEQ ID NO. 4) for 255 bp inhibin α, 5′-ctg aag gtc aaa ggg aat gtg-3′ (SEQ ID NO. 5) and 5′-gga cag agt ctt gat gat ctc-3′ (SEQ ID NO. 6) for 194 bp L-19 as an internal control.

granulosa cells = experiment: Estrogen production by granulosa cells, assayed in culture media; type: cell-based; details: for FSH-induced estrogen production: FSH pre-treated granulosa cells
Method: FIG. 7. Effects of T3 hormone on estrogen production. (A) Granulosa cells were treated with increasing concentrations of FSH and the culture media were assayed for estrogen production. (B) Granulosa cells that were pre-treated with FSH were treated with T3 for varying time periods, 0-4 days. The culture media were assayed for estrogen. (C) Granulosa cells were treated with none, thyroid hormone T3, FSH, or FSH and T3 combo for 3 or 5 days. The culture media were assayed for estrogen production. […] The culture media were assayed for estrogen production.

SMILES: CC[C@H](C)[C@@H]1NC(=O)CNC(=O)[C@@H]2Cc3c([nH]c4cc(O)ccc34)[S+]([O-])C[C@@H](NC(=O)CNC1=O)C(=O)N[C@@H](CC(N)=O)C(=O)N1C[C@H](O)C[C@H]1C(=O)N[C@@H]([C@@H](C)[C@@H](O)CO)C(=O)N2 (stereo in doubt) [α-amanitin]
- CTBP mRNA level, inhibitor alone in the absence of FSH (CTBP mRNA): did not significantly impact the expression level
- CTBP mRNA expression, co-treatment with FSH (CTBP mRNA; α-amanitin 30 μg/ml plus FSH 30 ng/ml): completely abolished

SMILES: N[C@@H](Cc1cc(I)c(Oc2ccc(O)c(I)c2)c(I)c1)C(=O)O [T3]
- FSH-induced estrogen synthesis (granulosa cells; FSH and T3 combo for 3 or 5 days): suppresses
- FSH-induced estrogen production (granulosa cells; T3 by day 4): completely blocked
- FSH-induced estrogen production (granulosa cells; T3 within 24 h): suppressed
- hCG-dependent estrogen production (granulosa cells; hCG and T3 combo for 3 or 5 days): stimulates

SMILES: C[C@@H]1C[C@@H]([C@H](O)CC2CC(=O)NC(=O)C2)C(=O)[C@@H](C)C1 [cycloheximide]
- CTBP mRNA level, inhibitor alone in the absence of FSH (CTBP mRNA): increased the CTBP mRNA level
- FSH-dependent decrease in CTBP mRNA in the presence of inhibitor (CTBP mRNA; CHX 10 μg/ml added 1 h before FSH 30 ng/ml, compared with absence of CHX): significantly less
- forskolin-induced reduction of CTBP mRNA level in the presence of inhibitor (CTBP mRNA; cycloheximide 10 μg/ml plus forskolin 10 μM): partially prevented
